Where “and” joins values, the source holds several entries; their conditions need not be identical. Equal entries are not always repeated. Toxic doses and inconclusive results are not listed.
Test system: P388 leukemia ip, CD2F1 mice, survival T/C
Experiment: NCI In Vivo Anticancer Drug Screen. Data for tumor model P388 Leukemia (intraperitoneal) in CD2F1 (CDF1) mice
Settings: endpoint: median survival time, higher = longer survival
Summary of the method: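 Mice carrying the transplanted tumor received test compound or vehicle. Survival was recorded in each group, and the value is the treated-group measurement divided by that of the vehicle-treated control group.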

[1] = dose: 12.5 mg/kg/injection, schedule: Q01DX009 (ip), vehicle: distilled water + Tween-80
[2] = dose: 25.0 mg/kg/injection, schedule: Q01DX009 (ip), vehicle: distilled water + Tween-80
[3] = dose: 50.0 mg/kg/injection, schedule: Q01DX009 (ip), vehicle: distilled water + Tween-80
[4] = dose: 25.0 mg/kg/injection, schedule: Q01DX009 (ip), vehicle: water
[5] = dose: 6.25 mg/kg/injection, schedule: Q01DX009 (ip), vehicle: saline with Tween-80
[6] = dose: 25.0 mg/kg/injection, schedule: Q01DX009 (ip), vehicle: saline with Tween-80
[7] = dose: 200.0 mg/kg/injection, schedule: Q01DX009 (ip), vehicle: saline with Tween-80
[8] = dose: 50.0 mg/kg/injection, schedule: Q01DX005 (ip), vehicle: Klucel (hydroxypropylcellulose) (HPC)
[9] = dose: 100.0 mg/kg/injection, schedule: Q01DX005 (ip), vehicle: Klucel (hydroxypropylcellulose) (HPC)
[10] = dose: 50.0 mg/kg/injection, schedule: Q01DX009 (ip), vehicle: saline with Tween-80
[11] = dose: 100.0 mg/kg/injection, schedule: Q01DX009 (ip), vehicle: saline with Tween-80
[12] = dose: 60.0 mg/kg/injection, schedule: Q01DX005 (ip), vehicle: saline with Tween-80
[13] = dose: 120.0 mg/kg/injection, schedule: Q01DX005 (ip), vehicle: saline with Tween-80
[14] = dose: 240.0 mg/kg/injection, schedule: Q01DX005 (ip), vehicle: saline with Tween-80
[15] = dose: 100.0 mg/kg/injection, schedule: Q01DX001 (ip), vehicle: saline with Tween-80
[16] = dose: 200.0 mg/kg/injection, schedule: Q01DX001 (ip), vehicle: saline with Tween-80
[17] = dose: 400.0 mg/kg/injection, schedule: Q01DX001 (ip), vehicle: saline with Tween-80

`Oc1c(Br)cc(Br)cc1/C=N/NC(=S)N/N=C/c1cc(Br)cc(Br)c1O` was tested, and the T/C [1] was 97 % of control, the T/C [2] was 103 % of control and 108 % of control and the T/C [3] was 118 % of control.

`CNc1cccc(NC)c1` was tested, and the T/C (dose: 12.5 mg/kg/injection, schedule: Q01DX009 (ip), vehicle: water) was 105 % of control and the T/C [4] was 112 % of control.

In the case of `N#C[S-].N#C[S-].N#C[S-].N#C[S-].[Cr+6].[NH2-].[NH2-]`, the T/C (dose: 25.0 mg/kg/injection, schedule: Q04DX003 (ip), vehicle: saline) is reported as 103 % of control and the T/C (dose: 50.0 mg/kg/injection, schedule: Q04DX003 (ip), vehicle: saline) is reported as 95 % of control.

With `CCOC(=O)c1ccc(NC(=O)Nc2ncccc2C)cc1` the T/C (dose: 0.78 mg/kg/injection, schedule: Q01DX009 (ip), vehicle: saline with Tween-80) was 98 % of control, the T/C (dose: 1.56 mg/kg/injection, schedule: Q01DX009 (ip), vehicle: saline with Tween-80) was 103 % of control and the T/C [5] was 92 % of control. The T/C [6] was 90 % of control and the T/C [7] was 89 % of control.

For `COCCCOC(=O)Oc1ccc(CC(N)C(=O)O)cc1` (centres undefined), the T/C [8] was 99 % of control, the T/C [9] was 99 % of control and the T/C (dose: 200.0 mg/kg/injection, schedule: Q01DX005 (ip), vehicle: Klucel (hydroxypropylcellulose) (HPC)) was 96 % of control.

With `O=C1NC(=O)C2CCCc3cccc1c32` (centres undefined) the T/C [10] was 100 % of control, the T/C [11] was 97 % of control and the T/C [7] was 110 % of control.

`CC12CCC/C(=N\NC(N)=S)C1C(=O)NC(=O)C2` (centres undefined) was tested, and the T/C (dose: 50.0 mg/kg/injection, schedule: Q01DX005 (ip), vehicle: saline with Tween-80) was 99 % of control, the T/C (dose: 100.0 mg/kg/injection, schedule: Q01DX005 (ip), vehicle: saline with Tween-80) was 96 % of control and the T/C (dose: 200.0 mg/kg/injection, schedule: Q01DX005 (ip), vehicle: saline with Tween-80) was 97 % of control.

`[N-]=[N+]=NC1(N=[N+]=[N-])C(=O)Nc2ccc(Cl)cc2C1=O` (centres undefined) was tested, and the T/C [8] was 107 % of control and the T/C [9] was 88 % of control.

With `CN(c1ccccc1)N1C(=O)CC2(CCCC2)C1=O` the T/C (dose: 100.0 mg/kg/injection, schedule: Q04DX002 (ip), vehicle: Klucel (hydroxypropylcellulose) (HPC)) was 103 % of control, the T/C (dose: 200.0 mg/kg/injection, schedule: Q04DX002 (ip), vehicle: Klucel (hydroxypropylcellulose) (HPC)) was 106 % of control and the T/C (dose: 400.0 mg/kg/injection, schedule: Q04DX002 (ip), vehicle: Klucel (hydroxypropylcellulose) (HPC)) was 94 % of control.

In the case of `CC(C)=CC1OC2CC3(C)C4=C(CCC3(C)C2C(C)C1O)C1(C)CCC(O)C(C)(C)C1CC4` (centres undefined), the T/C (dose: 15.0 mg/kg/injection, schedule: Q01DX009 (ip), vehicle: saline) is reported as 98 % of control, the T/C (dose: 30.0 mg/kg/injection, schedule: Q01DX009 (ip), vehicle: saline) is reported as 102 % of control and the T/C (dose: 60.0 mg/kg/injection, schedule: Q01DX009 (ip), vehicle: saline) is reported as 100 % of control.

`Cc1nn(C(=O)c2ccncc2)c(C)c1N=Nc1ccc([N+](=O)[O-])cc1` was tested, and the T/C (dose: 50.0 mg/kg/injection, schedule: Q01DX009 (ip), vehicle: Klucel (hydroxypropylcellulose) (HPC)) was 92 % of control and the T/C (dose: 100.0 mg/kg/injection, schedule: Q01DX009 (ip), vehicle: Klucel (hydroxypropylcellulose) (HPC)) was 93 % of control.

In the case of `CS(=O)CCN=Cc1ccc(N=Nc2ccc(O)cc2)cc1` (centres undefined), the T/C [12] is reported as 103 % of control, the T/C [13] is reported as 103 % of control and the T/C [14] is reported as 97 % of control.

For `CC(C)(O)Cc1ccc(Cl)cc1`, the T/C [6] was 99 % of control, the T/C [10] was 105 % of control and the T/C [11] was 108 % of control. The T/C [7] was 105 % of control.

With `O=[N+]([O-])C1(Br)COC(c2cccc(O)c2)OC1` (centres undefined) the T/C (dose: 3.12 mg/kg/injection, schedule: Q01DX009 (ip), vehicle: saline with Tween-80) was 99 % of control, the T/C [5] was 97 % of control and the T/C (dose: 12.5 mg/kg/injection, schedule: Q01DX009 (ip), vehicle: saline with Tween-80) was 111 % of control and 94 % of control.

For `COc1cccc(Oc2cccc[n+]2CC(C)=O)c1`, the T/C (dose: 25.0 mg/kg/injection, schedule: Q01DX005 (ip), vehicle: saline) was 98 % of control and the T/C (dose: 50.0 mg/kg/injection, schedule: Q01DX005 (ip), vehicle: saline) was 98 % of control.

In the case of `c1ccc(C2=NNC(c3ccccn3)=C3CCCCCCC3=N2)nc1`, the T/C (dose: 5.3 mg/kg/injection, schedule: Q01DX009 (ip), vehicle: water) is reported as 110 % of control, the T/C (dose: 8.0 mg/kg/injection, schedule: Q01DX009 (ip), vehicle: water) is reported as 112 % of control and the T/C (dose: 12.0 mg/kg/injection, schedule: Q01DX009 (ip), vehicle: water) is reported as 112 % of control. The T/C (dose: 18.0 mg/kg/injection, schedule: Q01DX009 (ip), vehicle: water) was 110 % of control, the T/C [4] was 111 % of control and the T/C (dose: 50.0 mg/kg/injection, schedule: Q01DX009 (ip), vehicle: water) was 117 % of control.

For `Cc1ccc(S(=O)(=O)N2CCCN(S(=O)(=O)c3ccc(C)cc3)CCSCCCSCC2)cc1`, the T/C [6] was 98 % of control and the T/C [10] was 87 % of control.

In the case of `COC(=O)c1nc2n[nH]c(N)c2c2c1CCCCCCCCCC2`, the T/C [12] is reported as 99 % of control, the T/C [13] is reported as 93 % of control and the T/C [14] is reported as 94 % of control.

`CC([NH-])CC(C)[NH-].O=[N+]([O-])O.O=[N+]([O-])O.[Pt+2]` (centres undefined) was tested, and the T/C (dose: 25.0 mg/kg/injection, schedule: Q04DX002 (ip), vehicle: saline) was 159 % of control.

`CCCCCCC(=O)/C=C/c1ccccc1OC(=O)c1ccc([N+](=O)[O-])cc1` was tested, and the T/C [10] was 98 % of control, the T/C [11] was 99 % of control and the T/C [7] was 96 % of control.

In the case of `NC(=S)Nc1ccccc1`, the T/C (dose: 2.5 mg/kg/injection, schedule: Q01DX009 (ip), vehicle: saline with Tween-80) is reported as 100 % of control, the T/C (dose: 2.5 mg/kg/injection, schedule: Q04DX003 (ip), vehicle: saline sonified) is reported as 100 % of control and the T/C (dose: 5.0 mg/kg/injection, schedule: Q01DX009 (ip), vehicle: saline with Tween-80) is reported as 100 % of control. The T/C (dose: 5.0 mg/kg/injection, schedule: Q04DX003 (ip), vehicle: saline sonified) was 104 % of control, the T/C (dose: 10.0 mg/kg/injection, schedule: Q01DX009 (ip), vehicle: saline with Tween-80) was 100 % of control and the T/C (dose: 10.0 mg/kg/injection, schedule: Q04DX003 (ip), vehicle: saline sonified) was 95 % of control.

With `Cn1cnc([N+](=O)[O-])c1N1CCN(c2ccccc2)CC1` the T/C [15] was 97 % of control, the T/C [16] was 93 % of control and the T/C [17] was 94 % of control.

With `Cc1nnc2c3[nH]c4ccccc4c3cnn12` the T/C (dose: 60.0 mg/kg/injection, schedule: Q01DX005 (ip), vehicle: saline) was 104 % of control, the T/C (dose: 120.0 mg/kg/injection, schedule: Q01DX005 (ip), vehicle: saline) was 95 % of control and the T/C (dose: 240.0 mg/kg/injection, schedule: Q01DX005 (ip), vehicle: saline) was 103 % of control.

For `CC1=C(C#N)C(=O)OC1(C)C(CC(=O)c1ccccc1)c1ccccc1` (centres undefined), the T/C [12] was 92 % of control, the T/C [13] was 87 % of control and the T/C [14] was 91 % of control.

`CNC(=O)OCc1nn(-c2ccc(OC)cc2)c(C)c1COC(=O)NC` was tested, and the T/C [1] was 92 % of control, the T/C [2] was 90 % of control and the T/C [3] was 90 % of control. For the same compound, the T/C (dose: 100.0 mg/kg/injection, schedule: Q01DX009 (ip), vehicle: distilled water + Tween-80) was 90 % of control and the T/C (dose: 200.0 mg/kg/injection, schedule: Q01DX009 (ip), vehicle: distilled water + Tween-80) was 87 % of control.

For `COC1CC(O)C2OC(c3ccccc3)OCC2O1` (centres undefined), the T/C [15] was 101 % of control, the T/C [16] was 105 % of control and the T/C [17] was 99 % of control.

With `CCOC(=O)c1c[nH]c2c(=O)n(C)c(=O)[nH]c12` the T/C (dose: 100.0 mg/kg/injection, schedule: Q04DX003 (ip), vehicle: saline with Tween-80) was 93 % of control and the T/C (dose: 200.0 mg/kg/injection, schedule: Q04DX003 (ip), vehicle: saline with Tween-80) was 100 % of control.

`CC1=NNC(=O)C1(Br)Br` was tested, and the T/C (dose: 3.13 mg/kg/injection, schedule: Q01DX009 (ip), vehicle: Klucel (hydroxypropylcellulose) (HPC)) was 90 % of control, the T/C (dose: 6.25 mg/kg/injection, schedule: Q01DX009 (ip), vehicle: Klucel (hydroxypropylcellulose) (HPC)) was 100 % of control and the T/C (dose: 12.5 mg/kg/injection, schedule: Q01DX009 (ip), vehicle: Klucel (hydroxypropylcellulose) (HPC)) was 100 % of control.

For `CCOP(=O)(OCC)/C(C#N)=C\c1ccc(N(C)C)cc1`, the T/C [15] was 100 % of control, the T/C [16] was 104 % of control and the T/C [17] was 100 % of control.

— PubChem BioAssay AID330 (DTP/NCI, 2004)
